Laboratory results: ChEMBL document CHEMBL1201862, “PubChem BioAssay data set” (2004)
“And” between values parts separate entries of the source, which are not always exact repeats. Equal entries are not always repeated. The source made the active and inactive calls.

Experiments:
[1] = target: Trypsin (Sus scrofa, UniProt P00761); experiment: trypsin protease activity blockade – biochemical, quenched peptide fluorescence, cherry-pick, selectivity assay for Rce1 protease inhibitor project, dose response (AID 488789)
[2] = target: T1, CAAX prenyl protease 2 (Saccharomyces cerevisiae S288c, UniProt Q03530); format: biochemical
T1 sequence (Q03530 whole entry): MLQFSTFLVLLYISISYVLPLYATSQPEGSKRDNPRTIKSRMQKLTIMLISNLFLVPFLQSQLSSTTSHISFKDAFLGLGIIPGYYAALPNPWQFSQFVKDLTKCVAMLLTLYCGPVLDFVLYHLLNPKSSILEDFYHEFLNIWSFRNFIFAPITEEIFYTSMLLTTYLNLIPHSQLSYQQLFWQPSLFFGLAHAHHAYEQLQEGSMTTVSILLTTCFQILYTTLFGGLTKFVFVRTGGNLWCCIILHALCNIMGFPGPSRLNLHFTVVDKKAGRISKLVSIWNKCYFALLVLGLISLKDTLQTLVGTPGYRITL

[3] = target: CAAX prenyl protease 1 (Saccharomyces cerevisiae S288c, UniProt P47154); experiment: yeast CAAX protease Ste24 inhibition – biochemical, S. cerevisiae, plate reader, cherry-pick, dose response (AID 488815)
[4] = target: T2, Mannose-6-phosphate isomerase (Homo sapiens, UniProt P34949); experiment: Confirmation of compounds inhibiting phosphomannose isomerase (PMI) via a fluorescence intensity assay using a high concentration of mannose 6-phosphate. [Related pubchem assays (depositor defined):AID1209, AID1220, AID1545, AID1553, AID1620]
T2 sequence (P34949 whole entry): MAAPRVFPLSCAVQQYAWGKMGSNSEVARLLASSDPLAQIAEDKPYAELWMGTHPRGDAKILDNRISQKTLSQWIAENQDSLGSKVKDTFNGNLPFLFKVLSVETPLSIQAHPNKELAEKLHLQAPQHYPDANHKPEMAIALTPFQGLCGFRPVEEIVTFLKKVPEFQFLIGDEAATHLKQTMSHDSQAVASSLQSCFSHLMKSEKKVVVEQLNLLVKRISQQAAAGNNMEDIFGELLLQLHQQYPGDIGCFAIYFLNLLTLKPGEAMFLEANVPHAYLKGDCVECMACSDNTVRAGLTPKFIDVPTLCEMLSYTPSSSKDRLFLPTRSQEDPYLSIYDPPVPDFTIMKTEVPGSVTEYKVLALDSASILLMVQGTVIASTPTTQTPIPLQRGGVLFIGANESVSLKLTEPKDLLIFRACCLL

[5] = target: T2, Mannose-6-phosphate isomerase; experiment: phosphomannose isomerase inhibition – biochemical, fluorescence intensity, confirmation (AID 1535)
[6] = target: Phosphomannomutase 2 (Homo sapiens, UniProt O15305); experiment: Counter screen SAR assay for PMM2 inhibitors via a fluorescence intensity assay. [Related pubchem assays (depositor defined):AID1545, AID1574]
[7] = tested on: HEK293; experiment: inhibition of NOD1-driven NF-kB reporter – cell-based, luminescence, uHTS, primary screen (AID 1578); format: functional; details: Homo sapiens
[8] = tested on: HEK293; experiment: cells; format: functional, cell-based; details: Homo sapiens
[9] = tested on: HEK293; experiment: cells; format: functional, cell-based; details: Homo sapiens; remark: listed apart in the source
[10] = tested on: HEK293; experiment: NOD2 signaling inhibitors in MDP-stimulated cells, cell-based, uHTS, luminescence (AID 2001); format: functional; details: Homo sapiens
[11] = target: Tumor necrosis factor (Homo sapiens, UniProt P01375); experiment: analog potency on TNFa NF-kB signaling – cell-based, revised, SAR follow-up (AID 2337); format: functional
[12] = target: Nucleotide-binding oligomerization domain-containing protein 1 (Homo sapiens, UniProt Q9Y239); experiment: blockers of NOD1 pathway activity – revised, SAR follow-up (AID 2333); format: functional
[13] = target: T3, Sentrin-specific protease 8 (Homo sapiens, UniProt Q96LD8); format: functional
T3 sequence (Q96LD8 whole entry): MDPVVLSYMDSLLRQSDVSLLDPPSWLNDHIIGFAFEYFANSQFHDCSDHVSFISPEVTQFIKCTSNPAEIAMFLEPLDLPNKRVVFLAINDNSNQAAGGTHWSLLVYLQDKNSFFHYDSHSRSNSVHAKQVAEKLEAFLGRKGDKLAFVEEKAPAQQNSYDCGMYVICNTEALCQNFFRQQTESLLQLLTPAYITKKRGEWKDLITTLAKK

[14] = target: T3, Sentrin-specific protease 8; format: functional; remark: listed apart in the source
[15] = tested on: HEK293; experiment: cells; details: Homo sapiens
[16] = target: SUMO E1/E2 (Homo sapiens, UniProt P63279+Q9UBE0+Q9UBT2); experiment: SAR analysis of SUMOylation using HTRF in an in-Vitro dose response assay. [Related pubchem assays (depositor defined):AID2006, AID2011, AID2018, AID2069, AID2658]; format: functional
[17] = target: Phospholipase D2 (Homo sapiens, UniProt O14939); experiment: cellular phospholipase D2 inhibition IC50 – cell-based, dose response (AID 602147); format: functional;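 also: cellular assay in HEK293 cells overexpressing GFP-tagged PLD2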
[18] = target: T4, Cytochrome P450 1A2 (Homo sapiens, UniProt P05177);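 also: PubChem cytochrome P450 panel assay, CYP1A2 panel member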
T4 sequence (P05177 whole entry): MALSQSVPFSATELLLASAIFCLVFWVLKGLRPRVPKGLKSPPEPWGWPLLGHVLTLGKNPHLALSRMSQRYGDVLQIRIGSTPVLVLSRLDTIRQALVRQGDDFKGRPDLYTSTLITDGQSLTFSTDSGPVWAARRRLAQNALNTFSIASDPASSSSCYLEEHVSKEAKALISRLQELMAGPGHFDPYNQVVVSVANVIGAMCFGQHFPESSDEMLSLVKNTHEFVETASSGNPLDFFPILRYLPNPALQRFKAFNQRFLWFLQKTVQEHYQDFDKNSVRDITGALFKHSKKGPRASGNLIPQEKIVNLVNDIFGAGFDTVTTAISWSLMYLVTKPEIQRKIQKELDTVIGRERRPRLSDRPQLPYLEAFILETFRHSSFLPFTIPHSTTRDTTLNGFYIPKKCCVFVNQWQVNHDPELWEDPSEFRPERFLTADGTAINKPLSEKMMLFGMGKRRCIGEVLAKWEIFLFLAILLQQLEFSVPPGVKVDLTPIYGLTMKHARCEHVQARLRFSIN

[19] = target: Cytochrome P450 2C9 (Homo sapiens, UniProt P11712)
Sequence of Cytochrome P450 2C9 (P11712 whole entry): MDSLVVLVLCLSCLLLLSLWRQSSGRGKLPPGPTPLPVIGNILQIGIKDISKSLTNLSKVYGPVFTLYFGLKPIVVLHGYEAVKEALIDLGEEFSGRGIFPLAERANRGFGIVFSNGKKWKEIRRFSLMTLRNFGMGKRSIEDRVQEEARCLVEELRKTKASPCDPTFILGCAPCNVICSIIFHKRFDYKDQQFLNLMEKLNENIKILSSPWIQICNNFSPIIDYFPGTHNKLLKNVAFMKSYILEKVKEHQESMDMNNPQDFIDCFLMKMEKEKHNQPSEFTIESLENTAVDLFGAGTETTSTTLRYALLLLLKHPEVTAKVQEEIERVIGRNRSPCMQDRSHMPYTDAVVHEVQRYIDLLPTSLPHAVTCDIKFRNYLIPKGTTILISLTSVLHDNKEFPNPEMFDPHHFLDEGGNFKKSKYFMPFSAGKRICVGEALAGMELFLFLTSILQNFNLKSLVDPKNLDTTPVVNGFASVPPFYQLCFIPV

Sequence of Nucleotide-binding oligomerization domain-containing protein 1 (Q9Y239 whole entry, the tested form may be a part): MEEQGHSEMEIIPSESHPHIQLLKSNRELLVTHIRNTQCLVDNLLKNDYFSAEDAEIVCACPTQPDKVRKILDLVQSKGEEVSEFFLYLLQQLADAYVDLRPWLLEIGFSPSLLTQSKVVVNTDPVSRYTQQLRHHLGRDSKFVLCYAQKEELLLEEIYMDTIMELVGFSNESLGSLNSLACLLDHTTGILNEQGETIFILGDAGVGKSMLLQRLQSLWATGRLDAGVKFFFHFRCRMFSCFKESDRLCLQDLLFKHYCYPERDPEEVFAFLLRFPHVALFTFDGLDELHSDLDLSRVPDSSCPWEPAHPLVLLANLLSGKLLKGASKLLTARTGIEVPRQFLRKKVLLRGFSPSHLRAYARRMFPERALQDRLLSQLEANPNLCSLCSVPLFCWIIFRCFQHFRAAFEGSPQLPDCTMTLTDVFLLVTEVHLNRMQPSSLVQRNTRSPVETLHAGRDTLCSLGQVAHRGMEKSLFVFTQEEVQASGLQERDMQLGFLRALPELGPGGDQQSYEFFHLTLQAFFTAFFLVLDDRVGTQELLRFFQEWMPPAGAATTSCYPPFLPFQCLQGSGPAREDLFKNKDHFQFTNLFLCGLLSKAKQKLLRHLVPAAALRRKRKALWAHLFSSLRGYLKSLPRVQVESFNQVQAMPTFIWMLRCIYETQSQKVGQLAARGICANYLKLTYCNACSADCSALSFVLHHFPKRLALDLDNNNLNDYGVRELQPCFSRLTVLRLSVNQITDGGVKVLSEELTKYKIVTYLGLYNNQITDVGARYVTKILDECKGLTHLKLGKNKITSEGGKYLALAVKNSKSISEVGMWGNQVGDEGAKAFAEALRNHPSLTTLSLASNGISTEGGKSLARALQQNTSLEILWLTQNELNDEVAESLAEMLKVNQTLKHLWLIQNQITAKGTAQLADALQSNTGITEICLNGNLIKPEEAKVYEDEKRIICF
Sequence of Tumor necrosis factor (P01375 whole entry, the tested form may be a part): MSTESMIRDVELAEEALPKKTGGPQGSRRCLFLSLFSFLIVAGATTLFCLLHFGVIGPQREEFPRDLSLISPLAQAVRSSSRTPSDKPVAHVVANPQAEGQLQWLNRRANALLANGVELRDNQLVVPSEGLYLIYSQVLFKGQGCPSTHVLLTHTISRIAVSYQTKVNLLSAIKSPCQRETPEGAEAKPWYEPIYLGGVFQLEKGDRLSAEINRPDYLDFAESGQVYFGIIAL
Sequence of Trypsin (P00761 whole entry): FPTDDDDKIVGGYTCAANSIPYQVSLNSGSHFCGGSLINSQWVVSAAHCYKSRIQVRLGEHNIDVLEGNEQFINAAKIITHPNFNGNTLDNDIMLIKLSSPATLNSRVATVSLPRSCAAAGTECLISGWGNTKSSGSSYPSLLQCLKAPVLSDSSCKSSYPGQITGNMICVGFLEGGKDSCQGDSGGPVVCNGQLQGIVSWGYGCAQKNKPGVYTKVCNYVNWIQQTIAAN
Sequence of CAAX prenyl protease 1 (P47154 whole entry): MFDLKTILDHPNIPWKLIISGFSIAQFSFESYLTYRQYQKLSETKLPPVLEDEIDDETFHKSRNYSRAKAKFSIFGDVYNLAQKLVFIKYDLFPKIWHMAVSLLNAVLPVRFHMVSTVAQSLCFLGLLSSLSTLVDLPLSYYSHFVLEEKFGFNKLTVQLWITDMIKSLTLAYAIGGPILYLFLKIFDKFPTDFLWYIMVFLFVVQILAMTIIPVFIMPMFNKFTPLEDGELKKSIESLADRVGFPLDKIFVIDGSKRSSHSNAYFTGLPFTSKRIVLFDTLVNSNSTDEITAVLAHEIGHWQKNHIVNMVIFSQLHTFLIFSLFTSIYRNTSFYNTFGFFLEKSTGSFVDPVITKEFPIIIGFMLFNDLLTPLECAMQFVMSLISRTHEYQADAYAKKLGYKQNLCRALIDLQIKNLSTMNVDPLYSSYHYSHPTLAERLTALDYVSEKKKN
Sequence of Phospholipase D2 (O14939 whole entry): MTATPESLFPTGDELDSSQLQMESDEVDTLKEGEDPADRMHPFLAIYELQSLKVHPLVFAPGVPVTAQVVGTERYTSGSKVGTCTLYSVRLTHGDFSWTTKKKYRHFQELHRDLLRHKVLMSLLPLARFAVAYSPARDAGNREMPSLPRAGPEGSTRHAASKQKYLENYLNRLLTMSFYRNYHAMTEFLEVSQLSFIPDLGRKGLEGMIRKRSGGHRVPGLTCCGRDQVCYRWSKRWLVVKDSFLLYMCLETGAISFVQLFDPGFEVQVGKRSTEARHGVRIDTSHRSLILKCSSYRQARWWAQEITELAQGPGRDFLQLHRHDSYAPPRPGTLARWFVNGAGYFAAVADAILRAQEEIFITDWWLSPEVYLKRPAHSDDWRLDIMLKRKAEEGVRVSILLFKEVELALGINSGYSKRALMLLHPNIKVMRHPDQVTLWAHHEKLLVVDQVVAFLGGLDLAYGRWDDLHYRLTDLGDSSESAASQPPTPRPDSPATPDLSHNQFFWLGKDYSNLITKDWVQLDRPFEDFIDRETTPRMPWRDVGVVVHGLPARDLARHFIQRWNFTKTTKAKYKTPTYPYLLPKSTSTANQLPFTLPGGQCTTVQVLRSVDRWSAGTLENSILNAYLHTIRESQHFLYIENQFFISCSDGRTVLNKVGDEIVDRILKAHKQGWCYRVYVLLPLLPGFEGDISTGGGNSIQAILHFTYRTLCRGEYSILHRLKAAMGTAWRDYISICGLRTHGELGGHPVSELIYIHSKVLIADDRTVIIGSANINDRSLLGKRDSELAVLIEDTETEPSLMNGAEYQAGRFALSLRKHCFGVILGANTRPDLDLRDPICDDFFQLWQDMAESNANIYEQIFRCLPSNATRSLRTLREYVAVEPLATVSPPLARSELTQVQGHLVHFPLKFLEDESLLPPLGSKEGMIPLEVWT
Sequence of SUMO E1/E2 (Q9UBE0 whole entry): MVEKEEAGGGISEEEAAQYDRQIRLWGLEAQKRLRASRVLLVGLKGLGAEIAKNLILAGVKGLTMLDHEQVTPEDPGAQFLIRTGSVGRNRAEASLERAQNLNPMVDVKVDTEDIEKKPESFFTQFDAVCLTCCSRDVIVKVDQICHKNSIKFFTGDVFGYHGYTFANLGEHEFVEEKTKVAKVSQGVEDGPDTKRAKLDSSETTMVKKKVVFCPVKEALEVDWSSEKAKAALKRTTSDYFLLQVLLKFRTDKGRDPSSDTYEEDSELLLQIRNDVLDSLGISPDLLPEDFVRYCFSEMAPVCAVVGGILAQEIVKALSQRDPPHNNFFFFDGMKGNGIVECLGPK
Sequence of SUMO E1/E2 (Q9UBT2 whole entry): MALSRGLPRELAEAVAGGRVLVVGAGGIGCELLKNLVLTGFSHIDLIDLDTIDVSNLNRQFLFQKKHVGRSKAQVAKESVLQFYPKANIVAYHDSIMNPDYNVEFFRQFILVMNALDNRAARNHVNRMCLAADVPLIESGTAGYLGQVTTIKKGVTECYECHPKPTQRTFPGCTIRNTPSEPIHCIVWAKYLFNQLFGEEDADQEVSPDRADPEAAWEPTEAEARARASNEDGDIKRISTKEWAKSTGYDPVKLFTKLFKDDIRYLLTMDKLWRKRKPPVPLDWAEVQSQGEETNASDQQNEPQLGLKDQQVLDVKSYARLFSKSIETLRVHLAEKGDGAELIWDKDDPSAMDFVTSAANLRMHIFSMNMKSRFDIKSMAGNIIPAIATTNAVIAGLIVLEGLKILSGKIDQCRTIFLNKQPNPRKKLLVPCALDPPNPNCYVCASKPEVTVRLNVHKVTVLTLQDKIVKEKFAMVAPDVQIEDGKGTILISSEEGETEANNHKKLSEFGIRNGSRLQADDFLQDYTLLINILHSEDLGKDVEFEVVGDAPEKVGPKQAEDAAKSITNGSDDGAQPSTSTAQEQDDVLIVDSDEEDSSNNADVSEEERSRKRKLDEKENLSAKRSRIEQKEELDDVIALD
Sequence of SUMO E1/E2 (P63279 whole entry): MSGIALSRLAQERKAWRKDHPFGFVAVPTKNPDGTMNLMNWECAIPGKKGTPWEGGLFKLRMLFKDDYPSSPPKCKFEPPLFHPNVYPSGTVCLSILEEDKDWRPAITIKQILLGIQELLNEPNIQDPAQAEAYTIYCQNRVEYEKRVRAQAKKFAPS
Sequence of Phosphomannomutase 2 (O15305 whole entry): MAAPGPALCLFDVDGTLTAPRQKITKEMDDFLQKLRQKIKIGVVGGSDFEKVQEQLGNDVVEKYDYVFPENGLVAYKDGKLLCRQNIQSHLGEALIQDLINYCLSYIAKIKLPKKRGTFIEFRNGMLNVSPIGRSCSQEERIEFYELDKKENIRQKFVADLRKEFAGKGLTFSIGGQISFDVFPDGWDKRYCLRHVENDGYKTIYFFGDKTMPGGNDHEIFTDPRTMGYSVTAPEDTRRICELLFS

Question: Which results are given for `CCOc1ccc(C2C(C(=O)OC)=CN(C(C)c3ccccc3)C=C2C(=O)OC)cc1` (centres undefined)?
Answer: AC50 [1]: 5.7 µM (active); AC50 [2]: > 100 µM (inactive); AC50 [3]: 5.08 µM (active)

Question: How did the IC50 [4] turn out when `COc1ccc2c(=O)n(C3CCCC3)sc2c1` was run?
Answer: > 100 µM (inactive)

Question: And the IC50 [5]?
Answer: 86.8 µM (active)

Question: What about the IC50 [6] of the same compound?
Answer: > 100 µM (inactive)

Question: `O=C(Nc1ccc(Cl)cc1)c1ccc(CN2CCc3ccccc3C2)cc1` was tested. Which EC50 [7] did it give?
Answer: 2.29 µM (active)

Question: And the IC50 [8]?
Answer: 2.11 µM (active)

Question: What about the IC50 [9] of the same compound?
Answer: > 20 µM (inactive)

Question: And the IC50 [10]?
Answer: 5.45 µM (inactive)

Question: What about the IC50 [11] of the same compound?
Answer: 4.66 µM (active) and 491 nM (active)

Question: And the IC50 [12]?
Answer: 1.19 µM (active) and 833 nM (active)

Question: And the IC50 [13]?
Answer: > 100 µM (inactive)

Question: And the IC50 [14]?
Answer: 22.1 µM (active)

Question: What about the IC50 [15] of the same compound?
Answer: > 20 µM (inactive)

Question: How did the IC50 [16] turn out when `C/C(=N\OCc1nc2ccccc2c(=O)n1/N=C/c1ccccc1O)c1ccccc1` was run?
Answer: 29.2 µM (active)

Question: With `O=C(NCCN1CCC2(CC1)C(=O)NCN2c1ccc(F)c(F)c1)c1cc2cc(F)ccc2[nH]1` as the compound, how does the IC50 [17] read?
Answer: 0.097 µM (active)

Question: What does the source list for `COc1cc(OC)c(C(=O)CCCN2CCCC2)c(OC)c1` [BUFLOMEDIL]?
Answer: AC50 [18]: inactive; AC50 [19]: inactive
